Measurements: patent US6133291A, “N-(imidazolylalkyl)substituted cyclic amines as histamine-H3 agonists or antagonists” (Schering Corporation, priority 1998, dated 2000)
Like-named read-outs stand apart in the source and are kept apart here.

Assays:
H3 receptors [1] = target: T1, H3 receptors (Cavia porcellus, UniProt Q9JI35); assay: pA2 at H3 receptor (guinea pig neuronal ileum contraction assay); format: biochemical
Excerpt: pA2=-logEC50, as defined by J. Hey, Eur. J. Pharmacol., (1995), Vol. 294, 329.

H3 receptors [2] = target: T1, H3 receptors; assay: H3-Receptor Binding Assay (guinea pig brain membranes, [3H]R-α-methylhistamine or [3H]Nα-methylhistamine)
histamine-H3 receptor = settings: cited from earlier work
rat = settings: cited from earlier work
mice = settings: electrically induced convulsions; cited from earlier work
[3] = HCl salt, pA2=-logEC50 as defined by J. Hey, read-out: pA2 (converted)
[4] = HCl salt, pA2=-logEC50 as defined by J. Hey
[5] = HCl salt, guinea pig brain membranes, pH 7.5, 30° C., 30 min

T1 sequence (Q9JI35 whole entry): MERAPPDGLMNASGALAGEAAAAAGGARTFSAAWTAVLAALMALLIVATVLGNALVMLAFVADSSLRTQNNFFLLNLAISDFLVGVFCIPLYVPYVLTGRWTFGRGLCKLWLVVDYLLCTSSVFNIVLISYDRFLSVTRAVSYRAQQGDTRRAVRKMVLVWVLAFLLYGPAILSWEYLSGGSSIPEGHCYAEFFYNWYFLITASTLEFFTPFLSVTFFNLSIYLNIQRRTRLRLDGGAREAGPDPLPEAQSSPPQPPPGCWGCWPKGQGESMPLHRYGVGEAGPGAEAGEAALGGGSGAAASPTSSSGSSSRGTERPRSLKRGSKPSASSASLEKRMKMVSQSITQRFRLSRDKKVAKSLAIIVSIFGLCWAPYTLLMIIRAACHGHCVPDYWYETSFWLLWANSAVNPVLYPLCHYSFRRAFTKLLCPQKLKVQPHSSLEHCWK

Compound	Kb (H3 receptors [1]; [3]) [nM]	Ki (H3 receptors [2]) [nM]	also measured
O=C(Nc1ccc(OC(F)(F)F)cc1)C1CCN(CCCCc2c[nH]cn2)CC1 [No. 2]	0.501	2	–
CCCNCC1CCN(CCCCc2c[nH]cn2)CC1 [No. 4]	–	200	–
O=C(Nc1ccc(Cl)cc1)C1CCN(CCCCc2c[nH]cn2)CC1 [No. 7]	–	35	–
O=C(Nc1ccc(Cl)c(Cl)c1)C1CCN(CCCCc2c[nH]cn2)CC1 [No. 8]	158	27	–
O=C(Nc1cccc(C(F)(F)F)c1)C1CCN(CCCCc2c[nH]cn2)CC1 [No. 10]	0.794	9	–
O=C(NCc1ccc(Cl)cc1)C1CCN(CCCc2c[nH]cn2)CC1 [No. 12]	10	29	–
O=C(NC1CCN(CCCc2c[nH]cn2)CC1)c1ccc(OC(F)(F)F)cc1 [No. 17]	–	23	–
O=C(NC1CCN(CCCc2c[nH]cn2)CC1)c1ccc(F)cc1 [No. 18]	–	52	–
CC1(C(=O)Nc2ccc(OC(F)(F)F)cc2)CCN(CCCCc2c[nH]cn2)CC1 [No. 19]	39.8	180	–
CC1(C(=O)Nc2ccc(OC(F)(F)F)cc2)CCCN(CCCCc2c[nH]cn2)C1 (stereo not shown) [No. 20]	–	170	–
N=C(N)SCCCc1c[nH]cn1 [S-[3-(4(5)-imidazolyl)propyl]isothiourea]	–	–	H3 agonist/antagonist activity (histamine-H3 receptor): histamine-H3 antagonist
CCOC(=O)C1CCN(CCCCc2c[nH]cn2)CC1 [compound 1]	–	22	–
CCCNC(=O)C1CCN(CCCCc2c[nH]cn2)CC1 [compound 3]	–	53	–
CCCN(CC1CCN(CCCCc2c[nH]cn2)CC1)S(=O)(=O)c1ccc(Cl)cc1 [compound 5]	–	44	–
CCCN(CC1CCN(CCCCc2c[nH]cn2)CC1)S(=O)(=O)c1ccc(OC(F)(F)F)cc1 [compound 6]	316	24	–
O=C(Nc1cccc(Cl)c1)C1CCN(CCCCc2c[nH]cn2)CC1 [compound 9]	1.26	5.5	–
O=C(Nc1cccc(OC(F)(F)F)c1)C1CCN(CCCc2c[nH]cn2)CC1 [compound 11]	0.631	1	–
O=C(NCc1ccc(OC(F)(F)F)cc1)C1CCN(CCCc2c[nH]cn2)CC1 [compound 13]	31.6	24	–
CCCCOc1ccc(NC(=O)C2CCN(CCCc3c[nH]cn3)CC2)cc1 [compound 14]	1	10	–

Compound	Kb (H3 receptors [1]; [3]) [nM]	Ki (H3 receptors [2]) [nM]	also measured
O=C(Nc1ccc(O)cc1)C1CCN(CCCc2c[nH]cn2)CC1 [compound 15]	–	100	–
O=C(Nc1cccc(O)c1)C1CCN(CCCc2c[nH]cn2)CC1 [compound 16]	–	700	–
FC(F)(F)Oc1ccc(CNC2CCN(CCCCc3c[nH]cn3)CC2)cc1 [compound 21]	7.94	13	–
FC(F)(F)Oc1ccc(NCC2CCN(CCCCc3c[nH]cn3)CC2)cc1 [compound 22]	–	9	–
c1nc(CCCCN2CCC(N3CCCCC3)CC2)c[nH]1 [compound 24]	631	100	–
OC1(c2ccc(Cl)cc2)CCN(CCCc2c[nH]cn2)CC1 [compound 25]	–	6	Kb (H3 receptors [1]): 12.6 nM
OC1(c2ccc(Cl)cc2)CCN(CCCCc2c[nH]cn2)CC1 [compound 26]	–	6	Kb (H3 receptors [1]): 10 nM
OC1(c2ccc(Cl)cc2)CCN(CCCCCc2c[nH]cn2)CC1 [compound 27]	–	5	Kb (H3 receptors [1]): 7.94 nM
OC1(c2cccc(C(F)(F)F)c2)CCN(CCCCc2c[nH]cn2)CC1 [compound 28]	–	60	–
OCCN1CCC(CCCC2CCN(CCCc3c[nH]cn3)CC2)CC1 [compound 29]	–	–	pA2 (H3 receptors [1]; [4]): 7.1; Ki (H3 receptors [2]; [5]): 12 nM
OCCN1CCC(CCCC2CCN(CCCCc3c[nH]cn3)CC2)CC1 [compound 30]	–	–	pA2 (H3 receptors [1]; [4]): 7.7; Ki (H3 receptors [2]; [5]): 7 nM
Fc1ccc(C2=CCN(CCCCc3c[nH]cn3)CC2)cc1 [compound 31]	–	14	Kb (H3 receptors [1]): 12.6 nM
O=C(c1ccc(F)cc1)C1CCN(CCCc2c[nH]cn2)CC1 [compound 32]	20	6	–
O=C(c1ccc(F)cc1)C1CCN(CCCCc2c[nH]cn2)CC1 [compound 33]	6.31	3	–
Fc1ccc(OCC2CCN(CCCCc3c[nH]cn3)CC2)cc1 [compound 34]	20	10	–
CCC(=O)C1(c2ccccc2)CCN(CCCc2c[nH]cn2)CC1 [compound 35]	–	500	–
OC1(Cc2ccccc2)CCN(CCCc2c[nH]cn2)CC1 [compound 36]	–	660	–
S=C(NC1CCCCC1)N1CCC(c2cnc[nH]2)CC1 [thioperamide]	–	–	reversal learning (rat): improve short-term memory and reversal learning; short-term memory (rat): improve short-term memory; duration of each phase of convulsion (mice): decreased the duration of each phase of convulsion; electroconvulsive threshold (mice): raised the electroconvulsive threshold
